Measured values as given in patent US20220133872A1, “A MONOPHOSPHORYL LIPID-A LIPOSOME BASED CANCER VACCINE” (University of Florida Research Foundation, Inc., priority 2019, published 2022).
“Also recorded” adds a separate entry of the source.

System: NKT cells
Assay: NKT cells in blood, spleen and liver of vaccinated C57BL/6 mice (flow cytometry)
Type: in vivo
Details: vs untreated mice
Description: B16-F10 mouse melanoma cell line in C57/BL6 mice provides a syngeneic model of spontaneous highly metastatic tumor. As shown in the diagram of FIG. 13, three groups of mice were injected with B16 melanoma cell lines. Only one group received the GD3 based vaccine, the other groups were a control group and α-galactosylceramide (α-GalCer), a potent and specific activator of mouse and human iNKT cells. These C57BL/6 mice were vaccinated weekly for 4 weeks followed by a week of rest (see FIG. 13). Mice where then euthanized to collect, blood, liver, and spleen for evaluation of NKT cells. Liver lymphocytes were collected by making mono-cellular suspension of liver obtained after enzymatic digestion. Collected lymphocytes were stained for CD3, CD4, TCRβ, NK1.1, CD49b and dead cells. In these experiments untreated and α-galactosylceramide (α-GalCer) treated mice were used as controls. Tumor size and mass was only recorded.
One week post last vaccination, mice were euthanized as per IACUC protocol and Natural Killer T cells were evaluated in blood, spleen, and liver by staining the isolated cells with anti-CD45, CD3, CD4, TCRb, CD49b and NK1.1 antibodies. The stained cells were analyzed on BD Fortessa and FlowJo 10 v.

CCCCCCCCCCCCCCCCCCCCCCCCCC(=O)N[C@@H](CO[C@H]1O[C@H](CO)[C@H](O)[C@H](O)[C@H]1O)[C@H](O)[C@H](O)CCCCCCCCCCCCCC [α-GalCer, α-galactosylceramide]
NKT cells in the liver (liver, weekly x4, one week after last vaccination): increased; also recorded: accumulation | NKT cells in spleen and blood (spleen and blood): no discernable differences
